Test results as given in ChEMBL document CHEMBL3286225, “Novel carboline derivatives as potent antifungal lead compounds: design, synthesis, and biological evaluation” (ACS Med Chem Lett, 2014).
≈ marks a conversion by molar mass, not a printed value.

Columns and labels:
Type in all cases: functional
Aspergillus fumigatus = assay: Antifungal activity against Aspergillus fumigatus 07544 after 7 days by serial dilution method; settings: Aspergillus fumigatus, 07544, 168 h
Nannizzia gypsea = assay: Antifungal activity against Microsporum gypseum Cmccfmza after 7 days by serial dilution method; settings: 168 h
Nakaseomyces glabratus = assay: Antifungal activity against Candida glabrata 537 after 24 hrs by serial dilution method; settings: Nakaseomyces glabratus, 537, 24 h
Cryptococcus neoformans = assay: Antifungal activity against Cryptococcus neoformans 32609 after 72 hrs by serial dilution method; settings: Cryptococcus neoformans, 32609, 72 h
Candida parapsilosis = assay: Antifungal activity against Candida parapsilosis ATCC 22019 after 24 hrs by serial dilution method; settings: Lodderomyces parapsilosis, ATCC 22019, 24 h
Candida albicans = assay: Antifungal activity against fluconazole-sensitive Candida albicans SC5314 after 24 hrs by serial dilution method; settings: SC5314, 24 h
Trichophyton rubrum = assay: Antifungal activity against Trichophyton rubrum Cmccftla after 7 days by serial dilution method; settings: 168 h
Candida tropicalis = assay: Antifungal activity against Candida tropicalis after 7 days by serial dilution method; settings: 168 h
Pichia kudriavzevii = assay: Antifungal activity against Candida krusei 0710397 after 7 days by serial dilution method; settings: Pichia kudriavzevii, 0710397, 168 h

SMILES | MIC80 (Aspergillus fumigatus) [mg/L] | MIC80 (Nannizzia gypsea) [mg/L] | MIC80 (Nakaseomyces glabratus) [mg/L] | MIC80 (Cryptococcus neoformans) [mg/L] | MIC80 (Candida parapsilosis) [mg/L] | MIC80 (Candida albicans) [mg/L] | MIC80 (Trichophyton rubrum) [mg/L] | MIC80 (Candida tropicalis) [mg/L] | MIC80 (Pichia kudriavzevii) [mg/L]
CN1CCc2c(c3cc(Cl)ccc3n2CCCOc2ccc(Cl)cc2)C1 | > 64 | 16 (≈ 41.1 µM) | 16 (≈ 41.1 µM) | 8 (≈ 20.5 µM) | 16 (≈ 41.1 µM) | 64 (≈ 164 µM) | > 64 |  | 
CN1CCc2c(c3cc(Cl)ccc3n2Cc2cccc(Cl)c2)C1 | 32 (≈ 92.7 µM) | 16 (≈ 46.3 µM) | 16 (≈ 46.3 µM) | 16 (≈ 46.3 µM) | 32 (≈ 92.7 µM) | 64 (≈ 185 µM) | 8 (≈ 23.2 µM) |  | 
Cc1ccc2c(c1)c1c(n2CCCOc2ccc(F)cc2)CCNC1 |  | 4 (≈ 11.8 µM) |  | 16 (≈ 47.3 µM) | 16 (≈ 47.3 µM) | 4 (≈ 11.8 µM) | 4 (≈ 11.8 µM) | 64 (≈ 189 µM) | 16 (≈ 47.3 µM)
CCCN1CCc2c(c3cc(Cl)ccc3n2CCCOc2ccc(Cl)cc2)C1 | > 64 | 16 (≈ 38.3 µM) | 16 (≈ 38.3 µM) | 16 (≈ 38.3 µM) | 64 (≈ 153 µM) | > 64 | > 64 |  | 
Fc1ccc(OCCCn2c3c(c4cc(Br)ccc42)CNCC3)cc1 |  | 4 (≈ 9.92 µM) |  | 4 (≈ 9.92 µM) | 4 (≈ 9.92 µM) | 4 (≈ 9.92 µM) | 8 (≈ 19.8 µM) | 16 (≈ 39.7 µM) | 4 (≈ 9.92 µM)
Fc1ccc2c(c1)c1c(n2CCCOc2ccc(F)c(F)c2F)CCNC1 |  | 4 (≈ 10.6 µM) |  | 4 (≈ 10.6 µM) | 64 (≈ 169 µM) | 8 (≈ 21.1 µM) | 8 (≈ 21.1 µM) | 4 (≈ 10.6 µM) | 4 (≈ 10.6 µM)
CN1CCc2c(c3cc(Cl)ccc3n2C(=O)c2ccc(Cl)cc2)C1 | > 64 | > 64 | 32 (≈ 89.1 µM) | 32 (≈ 89.1 µM) | 64 (≈ 178 µM) | > 64 | 32 (≈ 89.1 µM) |  | 
Fc1ccc(OCCCCn2c3c(c4cc(F)ccc42)CNCC3)cc1 |  | 8 (≈ 22.4 µM) |  | 16 (≈ 44.9 µM) | 16 (≈ 44.9 µM) | 16 (≈ 44.9 µM) | 16 (≈ 44.9 µM) | 16 (≈ 44.9 µM) | 4 (≈ 11.2 µM)
CN1CCc2c(c3cc(Cl)ccc3n2CC(O)c2ccccc2)C1 (stereo not given) | > 64 | 32 (≈ 93.9 µM) | 32 (≈ 93.9 µM) | 32 (≈ 93.9 µM) | 64 (≈ 188 µM) | > 64 | > 64 |  | 
Fc1ccc2c(c1)c1c(n2CCCOc2cccc(F)c2F)CCNC1 |  | 16 (≈ 44.4 µM) |  | 32 (≈ 88.8 µM) | 4 (≈ 11.1 µM) | 32 (≈ 88.8 µM) | 32 (≈ 88.8 µM) | 16 (≈ 44.4 µM) | 4 (≈ 11.1 µM)
CCN1CCc2c(c3cc(Cl)ccc3n2CCCOc2ccc(Cl)cc2)C1 | > 64 | 32 (≈ 79.3 µM) | 32 (≈ 79.3 µM) | 16 (≈ 39.7 µM) | 64 (≈ 159 µM) | 64 (≈ 159 µM) | > 64 |  | 
C#CCn1c2c(c3cc(Cl)ccc31)CN(C)CC2 | > 64 | 32 (≈ 124 µM) | 64 (≈ 247 µM) | 32 (≈ 124 µM) | 64 (≈ 247 µM) | > 64 | > 64 |  | 
Cc1ccc(OCCCn2c3c(c4cc(F)ccc42)CNCC3)cc1 |  | 4 (≈ 11.8 µM) |  | 4 (≈ 11.8 µM) | 4 (≈ 11.8 µM) | 8 (≈ 23.6 µM) | 2 (≈ 5.91 µM) | 16 (≈ 47.3 µM) | 4 (≈ 11.8 µM)
COc1ccc2c(c1)c1c(n2CCCOc2ccc(Cl)cc2)CCN(C)C1 | 32 (≈ 83.1 µM) | 8 (≈ 20.8 µM) | > 64 | 8 (≈ 20.8 µM) | 32 (≈ 83.1 µM) | 32 (≈ 83.1 µM) | 8 (≈ 20.8 µM) |  | 
CN1CCc2c(c3cccc(Cl)c3n2CCCOc2ccc(Cl)cc2)C1 | > 64 | 16 (≈ 41.1 µM) | 32 (≈ 82.2 µM) | 16 (≈ 41.1 µM) | 32 (≈ 82.2 µM) | 32 (≈ 82.2 µM) | > 64 |  | 
Cc1ccc2c3c(n(CCCOc4ccc(Cl)cc4)c2c1)CCN(C)C3 | 16 (≈ 43.4 µM) | 8 (≈ 21.7 µM) | 16 (≈ 43.4 µM) | 8 (≈ 21.7 µM) | 16 (≈ 43.4 µM) | 32 (≈ 86.7 µM) | 8 (≈ 21.7 µM) |  | 
CN1CCc2c(c3cc(Cl)ccc3n2Cc2ccc(Cl)cc2)C1 | 64 (≈ 185 µM) | 16 (≈ 46.3 µM) | 16 (≈ 46.3 µM) | 16 (≈ 46.3 µM) | 64 (≈ 185 µM) | 64 (≈ 185 µM) | 64 (≈ 185 µM) |  | 
Fc1ccc(NCCCn2c3c(c4cc(F)ccc42)CNCC3)cc1 |  | 16 (≈ 46.9 µM) |  | 32 (≈ 93.7 µM) | 16 (≈ 46.9 µM) | 8 (≈ 23.4 µM) | 32 (≈ 93.7 µM) | 64 (≈ 187 µM) | 16 (≈ 46.9 µM)
Fc1ccc(F)c(OCCCn2c3c(c4cc(F)ccc42)CNCC3)c1 |  | 2 (≈ 5.55 µM) |  | 16 (≈ 44.4 µM) | 64 (≈ 178 µM) | 4 (≈ 11.1 µM) | 8 (≈ 22.2 µM) | 16 (≈ 44.4 µM) | 4 (≈ 11.1 µM)
Fc1ccc2c(c1)c1c(n2CCCOc2cccc(Br)c2)CCNC1 |  | 2 (≈ 4.96 µM) |  | 4 (≈ 9.92 µM) | 4 (≈ 9.92 µM) | 2 (≈ 4.96 µM) | 4 (≈ 9.92 µM) | 16 (≈ 39.7 µM) | 4 (≈ 9.92 µM)
